Test results: patent US20150274639A1, “METHODS OF USE FOR COMPOSITIONS COMPRISING A BIOCIDAL POLYAMINE” (Curza Global, LLC, priority 2013, published 2015)
≈ marks a conversion by molar mass, not a printed value.

Key:
[1] = system: MRSA; experiment: MIC in CAMHB, 96-well plate (10^5 to 10^2 CFU/mL in 24 hours); format: cell-based, methicillin-resistant Staphylococcus aureus; details: Staphylococcus aureus, MRSA, Table 5, class symbols
Procedure: (§1) To determine the MIC of polyamine compounds, the protocol described herein was used.
In brief, a 0.5 McFarland of each bacterial isolate was made. A 0.5 McFarland is a measure of turbidity in a liquid sample that contains approximately 1×10̂^8 CFU/mL. The 0.5 McFarland standard was diluted in cation adjusted Mueller Hinton Broth (CAMHB), and […], of broth were added to a well of a 96-well plate. In addition, 50 μL of CAMHB that contained a desired concentration of antimicrobial were also added to the well for a final volume of 100 and a final concentration of approximately 5×10^4 CFU/well (which equated to approximately 5×10^5 CFU/mL). Each well contained a desired amount of polyamine compound in order to experimentally determine the MIC. Each 96-well plate was incubated at 37° C. for 24 hours. The contents of each well were plated on tryptic soy agar (TSA). TSA plates were incubated for 37° C. for 24 hours after which the number of CFU were counted and used to calculate the CFU/mL that remained after exposure to varying concentrations of compound. This procedure was repeated n=8 times for each concentration of antimicrobial. […]

[2] = system: P. aeruginosa; experiment: as above; format: cell-based; details: Pseudomonas aeruginosa, Table 5, class symbols
Procedure: as §1
In brief, a 0.5 McFarland of each bacterial isolate was made. A 0.5 McFarland is a measure of turbidity in a liquid sample that contains approximately 1×10̂^8 CFU/mL. The 0.5 McFarland standard was diluted in cation adjusted Mueller Hinton Broth (CAMHB), and […], of broth were added to a well of a 96-well plate. In addition, 50 μL of CAMHB that contained a desired concentration of antimicrobial were also added to the well for a final volume of 100 and a final concentration of approximately 5×10^4 CFU/well (which equated to approximately 5×10^5 CFU/mL). Each well contained a desired amount of polyamine compound in order to experimentally determine the MIC. Each 96-well plate was incubated at 37° C. for 24 hours. The contents of each well were plated on tryptic soy agar (TSA). TSA plates were incubated for 37° C. for 24 hours after which the number of CFU were counted and used to calculate the CFU/mL that remained after exposure to varying concentrations of compound. This procedure was repeated n=8 times for each concentration of antimicrobial.

[3] = system: MRSA; experiment: MIC against MRSA as defined by CLSI (FIG. 25 series); format: cell-based, methicillin-resistant Staphylococcus aureus; details: Staphylococcus aureus
Procedure: To determine the MIC of the polyamine chains alone and the synthesized compounds against MRSA and P. aeruginosa ATCC 27853, a modified protocol from the Clinical and Laboratory Standards Institute (CLSI) guideline M26-A was used. […] All data was collected using cation adjusted MHB for standardization.
As mentioned, MRSA and P. aeruginosa ATCC 27853 were grown on Columbia blood agar plates prior to experimentation. From the blood agar plates, a 0.5 McFarland standard was made of each isolate. This equated to approximately 5×10^7 cells/mL for the MRSA isolate and approximately 3×10^7 cells/mL for the P. aeruginosa ATCC 27853 isolate. Of the 0.5 McFarland stock solution, 50 μL were added to MHB. […] All tests were performed such that a final volume of 5 mL of MHB were obtained. This provided a final bacterial concentration of approximately 5×10^5 cells/mL.
Each sample was incubated in glass test tubes at 37° C. for 24 hours, then plated in duplicate on tryptic soy agar (TSA) using a 10-fold dilution series. TSA plates were further incubated 24 hours at 37° C. The number of colony forming units (CFU) that grew were counted in order to calculate the number of bacteria that were present per mL in the original MHB solution.

[4] = system: biofilms of MRSA and P. aeruginosa; details: understanding of the inventors, no own test described; cited from earlier work
[5] = system: biofilm formation; details: Kolodkin-Gal et al., Cell 149 (2012), cited from earlier work

Compound `NCCCCNCc1ccccc1` [CZ-3] has an MIC [1] of over 100 µM.
`CN(C)CCCNCCCNCc1ccccc1` [CZ-6] gave an MIC [1] of over 100 µM.
`NCCCNCc1cccc(CNCCCN)c1` [CZ-12] showed an MIC [2] of over 100 µM.
Compound `NCCCNCCCNCCCNCc1ccccc1` [CZ-16] has an MIC [1] of over 100 µM.
For `Cc1cc(C)c(CNCCCN)c(C)c1CNCCCN` [CZ-19], the MIC [1] was over 100 µM.
With `NCCCNCCCNCc1cccc(CO)c1` [CZ-22] the MIC [1] was 50 to 100 µM (≈ 12.6 to 25.1 µg/mL).
For `NCCCCCCNCc1cccc(CNCCCCCCN)c1` [CZ-26], the MIC [1] was 50 to 100 µM (≈ 16.7 to 33.5 µg/mL) and the MIC [2] was over 100 µM.
`NCCCNCc1cc(CNCCCN)cc(CNCCCN)c1` [CZ-32] showed an MIC [3] of 45 µg/mL (≈ 134 µM), an MIC [1] of 50 to 100 µM (≈ 16.8 to 33.7 µg/mL) and an MIC [2] of 50 to 100 µM (≈ 16.8 to 33.7 µg/mL).
With `NCCCCCCNCc1cc(CNCCCCCCN)cc(CNCCCCCCN)c1` [CZ-33] the MIC [1] was 50 to 100 µM (≈ 23.1 to 46.3 µg/mL) and the MIC [2] was over 100 µM.
`NCCCNC(=O)c1cccc(C(=O)NCCCN)c1` [CZ-40] gave an MIC [2] of over 100 µM.
Work on `CN(C)CCCNCCCNCc1cccc(CNCCCNCCCN(C)C)c1` [CZ-43] yielded an MIC [1] of over 100 µM and an MIC [2] of over 100 µM.
Work on `NCCCNCCCNCc1cc(CO)cc(CNCCCNCCCN)c1` [CZ-53] yielded an MIC [1] of under 50 µM and an MIC [2] of 50 to 100 µM (≈ 19.7 to 39.5 µg/mL).
Compound `CC(C)(C)OC(=O)NCCCNCCCNCc1cc(CNCCCNCCCN)cc(CNCCCNCCCNC(=O)OC(C)(C)C)c1` [CZ-54] has an MIC [1] of under 50 µM and an MIC [2] of under 50 µM.
Work on `NCCCNCCCNCCCNCc1cccc(CNCCCNCCCNCCCN)c1` [CZ-57] yielded an MIC [1] of under 50 µM and an MIC [2] of over 100 µM.
With `NCCCNCCCNCc1cc(CNCCCNCCCN)cc(-c2ccc3c(c2)OCO3)c1` [CZ-61] the MIC [1] was under 50 µM and the MIC [2] was under 50 µM.
In the case of `NCCCNCCCNCc1cccc(-c2cc(CNCCCNCCCN)cc(CNCCCNCCCN)c2)c1` [CZ-62], the MIC [1] is reported as under 50 µM and the MIC [2] is reported as under 50 µM.
For `Cc1ccccc1-c1cc(CNCCCNCCCN)cc(CNCCCNCCCN)c1` [CZ-63], the MIC [1] was under 50 µM and the MIC [2] was under 50 µM.
Compound `NCCCNCCCNCc1ccc(-c2cc(CNCCCNCCCN)cc(CNCCCNCCCN)c2)cc1` [CZ-65] has an MIC [1] of under 50 µM and an MIC [2] of under 50 µM.
`CC(C)Oc1ccc(-c2cc(CNCCCNCCCN)cc(CNCCCNCCCN)c2)cc1CNCCCNCCCN` [CZ-66] gave an MIC [1] of under 50 µM and an MIC [2] of under 50 µM.
Compound `NCCCNCCCNCc1cc(CNCCCNCCCN)cc(-c2ccc(OC(F)(F)F)c(CNCCCNCCCN)c2)c1` [CZ-69] has an MIC [1] of under 50 µM and an MIC [2] of under 50 µM.
In the case of `NCCCNCCCNCc1cc(CNCCCNCCCN)cc(-c2ccncc2)c1` [CZ-71], the MIC [1] is reported as under 50 µM and the MIC [2] is reported as over 100 µM.
Work on `COc1ccc(-c2cc(CNCCCNCCCN)cc(CNCCCNCCCN)c2)cn1` [CZ-72] yielded an MIC [1] of under 50 µM and an MIC [2] of under 50 µM.
Work on `NCCCNCCCNCCCNCc1cc(CNCCCNCCCNCCCN)cc(-c2ccccc2)c1` [CZ-73] yielded an MIC [1] of under 50 µM and an MIC [2] of under 50 µM.
In the case of `N=C(NCCCCCCNC(=N)NC(=N)Nc1ccc(Cl)cc1)NC(=N)Nc1ccc(Cl)cc1.O=C(O)[C@H](O)[C@@H](O)[C@H](O)[C@H](O)CO.O=C(O)[C@H](O)[C@@H](O)[C@H](O)[C@H](O)CO` [chlorhexidine gluconate], the “biofilm dispersal effect (comparison antimicrobials)” value [4] is listed as “not seen”.
In the case of `O=CCCCC=O` [glutaraldehyde], the “biofilm dispersal effect (comparison antimicrobials)” value [4] is listed as “not seen”.
In the case of `NCCCNCCCN` [norspermidine, N-(3-aminopropyl)propane-1,3-diamine], the “concentration at which biofilm formation is inhibited” value [5] is given as 25 µM.
In the case of `NCCCCNCCCN` [spermidine], the “concentration at which active” value ([5]; only active at much higher concentrations) is given as about 1 mM.
